Laboratory results from patent US10435369B2, “Tricyclic sulfones as ROR gamma modulators” (BRISTOL-MYERS SQUIBB COMPANY, priority 2016, dated 2019).

Molecular target: RORγ receptor (Homo sapiens, UniProt P51449)
Experiment: RORγ Gal4 reporter assay (Gal4-luciferase, inverse agonist activity)
Assay type: cell-based
Experimental: General RORγ Gal4 Reporter Assay
IC50 values were determined.

RORγ receptor, sequence (P51449 269-508): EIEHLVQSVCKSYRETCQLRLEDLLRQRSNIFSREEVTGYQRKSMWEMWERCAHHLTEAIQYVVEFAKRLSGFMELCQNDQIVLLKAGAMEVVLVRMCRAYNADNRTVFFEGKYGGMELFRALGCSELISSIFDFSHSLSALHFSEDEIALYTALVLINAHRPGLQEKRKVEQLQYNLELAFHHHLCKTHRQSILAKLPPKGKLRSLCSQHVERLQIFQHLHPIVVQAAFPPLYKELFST

`O=C(N[C@@H]1CC[C@@]2(S(=O)(=O)c3ccc(F)cc3)c3ccc(C(F)(C(F)(F)F)C(F)(F)F)cc3CC[C@@H]12)C1=CCS(=O)(=O)CC1` [Example 299, N-((3R,3aS,9bS)-9b-((4-fluorophenyl)sulfonyl)-7-(perfluoropropan-2-yl)-2,3,3a,4,5,9b-hexahydro-1H-cyclopenta[a]naphthalen-3-yl)-3,6-dihydro-2H-thiopyran-4-carboxamide 1,1-dioxide] was tested. Which IC50 did it give?
The IC50 was 5 nM.
